Some test systems named below: A498 renal; OVCAR-3 ovarian; MDA-N; HL-60(TB) leukemia; HOP-92 NSCLC; SW-620 colon; LOX IMVI melanoma; EKVX NSCLC; SN12C renal; SF-268 CNS; SK-MEL-2 melanoma; KM12 colon; RXF 393 renal; RPMI-8226 leukemia; SF-295 CNS; SK-MEL-5 melanoma; SK-MEL-28 melanoma; TK-10 renal.
Holding throughout (assay): inhibition of tumour cell growth, NCI panel, 48 h

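Five concentrations, 48 hours, 96-well plates. The concentration for full growth arrest is given as TGI.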

Turning to `C=CCSC1=N/C(=C\c2ccco2)C(=O)N1CC=C`, the TGI is 94.1 µM in the test on A498 renal; greater than 100 µM in the test with OVCAR-3 ovarian; greater than 100 µM in the test with MDA-N; 60.2 µM with HL-60(TB) leukemia; greater than 100 µM in the test with HOP-92 NSCLC; greater than 100 µM with SW-620 colon. For the same compound, the TGI with LOX IMVI melanoma, with EKVX NSCLC, in the test with SN12C renal, with SF-268 CNS, with SK-MEL-2 melanoma and in the test on KM12 colon was greater than 100 µM each time. In addition, the TGI is 65.7 µM in the test on RXF 393 renal; greater than 100 µM in the test with RPMI-8226 leukemia; greater than 100 µM with SF-295 CNS; greater than 100 µM in the test on SK-MEL-5 melanoma; greater than 100 µM with SK-MEL-28 melanoma; greater than 100 µM in the test with TK-10 renal.
With `O=C1Nc2ccccc2/C1=C\c1c(Cl)[nH]c2ccccc12`, the TGI in the test with A498 renal came to 4.78 µM; in the test with OVCAR-3 ovarian it was 17.5 µM; in the test on MDA-N it was 0.486 µM; in the test with HL-60(TB) leukemia it was 0.728 µM; with HOP-92 NSCLC, 3.6 µM; in the test with SW-620 colon it was 5.45 µM. Further, the TGI in the test with LOX IMVI melanoma stood at 6.15 µM; with EKVX NSCLC, 5.29 µM; in the test with SN12C renal, 17.5 µM; with SF-268 CNS, 7.72 µM; with SK-MEL-2 melanoma, 6.67 µM; with KM12 colon, 1.67 µM. Moreover, the TGI came to 3.55 µM with RXF 393 renal; 3.34 µM in the test with RPMI-8226 leukemia; 0.956 µM in the test on SF-295 CNS; 2.04 µM with SK-MEL-5 melanoma; 0.78 µM with SK-MEL-28 melanoma; 6.65 µM in the test on TK-10 renal.
For the compound `N#CCCN(CCC#N)c1ccc(/C=C2\N=C(c3ccccc3)N(NC(=O)c3ccncc3)C2=O)cc1`, the TGI in the test with A498 renal, in the test on OVCAR-3 ovarian, with MDA-N, with HL-60(TB) leukemia, in the test with HOP-92 NSCLC and in the test with SW-620 colon was greater than 100 µM each time. Further, the TGI in the test with LOX IMVI melanoma, in the test on EKVX NSCLC, in the test on SN12C renal, with SF-268 CNS, in the test with SK-MEL-2 melanoma and with KM12 colon was greater than 100 µM throughout. For the same compound, the TGI with RXF 393 renal, in the test with RPMI-8226 leukemia, in the test on SF-295 CNS, in the test on SK-MEL-5 melanoma, with SK-MEL-28 melanoma and in the test on TK-10 renal was greater than 100 µM throughout.
With `O=Cc1cc(O)ccc1Br`, the TGI in the test on A498 renal is greater than 100 µM; with OVCAR-3 ovarian, greater than 91.8 µM; in the test on MDA-N it was 25.6 µM; in the test on HL-60(TB) leukemia, 5.39 µM; in the test on HOP-92 NSCLC it was 75.7 µM; with SW-620 colon, greater than 100 µM. The TGI in the test with LOX IMVI melanoma was 33.4 µM; with EKVX NSCLC it was greater than 100 µM; in the test with SN12C renal, greater than 100 µM; in the test with SF-268 CNS it was greater than 100 µM; in the test with SK-MEL-2 melanoma, greater than 93.2 µM; in the test on KM12 colon, greater than 81.6 µM. Further, the TGI in the test on RXF 393 renal was greater than 100 µM; in the test on RPMI-8226 leukemia, greater than 36 µM; with SF-295 CNS it was 99.5 µM; in the test with SK-MEL-5 melanoma it was 98.2 µM; in the test on SK-MEL-28 melanoma it was greater than 100 µM; in the test with TK-10 renal it was 99 µM.
Consider `CSc1nc2ccccc2c(=O)n1-c1cccc(C)c1`, for which the TGI in the test on A498 renal was 92 µM; with OVCAR-3 ovarian, greater than 100 µM; in the test on MDA-N, 72.5 µM; in the test with HL-60(TB) leukemia, 9.77 µM; with HOP-92 NSCLC, greater than 100 µM; with SW-620 colon it was greater than 100 µM. Besides, the TGI in the test with LOX IMVI melanoma, with EKVX NSCLC, in the test on SN12C renal, with SF-268 CNS, with SK-MEL-2 melanoma and in the test on KM12 colon was greater than 100 µM in each case. Besides, the TGI was greater than 100 µM in the test with RXF 393 renal; greater than 100 µM in the test on RPMI-8226 leukemia; greater than 100 µM in the test on SF-295 CNS; 66.2 µM in the test with SK-MEL-5 melanoma; greater than 100 µM in the test on SK-MEL-28 melanoma; greater than 100 µM with TK-10 renal.
In the case of `O=C(CN1c2ccccc2Sc2ccccc21)n1cnc2ccccc21`, the TGI in the test with A498 renal is greater than 100 µM; with OVCAR-3 ovarian, greater than 100 µM; in the test on MDA-N it was greater than 100 µM; in the test with HL-60(TB) leukemia it was greater than 100 µM; with HOP-92 NSCLC, 93.9 µM; in the test with SW-620 colon, greater than 100 µM. Further, the TGI in the test on LOX IMVI melanoma, in the test on EKVX NSCLC, with SN12C renal, in the test with SF-268 CNS, in the test on SK-MEL-2 melanoma and with KM12 colon was greater than 100 µM throughout. Also, the TGI in the test with RXF 393 renal, with RPMI-8226 leukemia, with SF-295 CNS, with SK-MEL-5 melanoma, in the test on SK-MEL-28 melanoma and in the test on TK-10 renal was greater than 100 µM each time.

The values are drawn from PubChem BioAssay (NCI).
